Measured values taken from patent publication US20110294766A1, “16 Alpha, 17 Alpha-Acetal Glucocorticosteroidal Derivatives and their Use” (AstraZeneca AB, priority 2008, published 2011).

Each compound was assayed against T1, recombinant human GR (Homo sapiens, UniProt P04150) (assay: Human Glucocorticoid Receptor (GR) Assay (fluorescence polarization, Panvera/Invitrogen kit)). Settings: GS Red tracer, 2 hours at room temperature, 100% control 10 μM Dexamethasone, read-out: Inhibition of GR binding, IC50.
T1 construct: purchased Panvera/Invitrogen P2812 (kit P2893)
T1 sequence (P04150 1-777): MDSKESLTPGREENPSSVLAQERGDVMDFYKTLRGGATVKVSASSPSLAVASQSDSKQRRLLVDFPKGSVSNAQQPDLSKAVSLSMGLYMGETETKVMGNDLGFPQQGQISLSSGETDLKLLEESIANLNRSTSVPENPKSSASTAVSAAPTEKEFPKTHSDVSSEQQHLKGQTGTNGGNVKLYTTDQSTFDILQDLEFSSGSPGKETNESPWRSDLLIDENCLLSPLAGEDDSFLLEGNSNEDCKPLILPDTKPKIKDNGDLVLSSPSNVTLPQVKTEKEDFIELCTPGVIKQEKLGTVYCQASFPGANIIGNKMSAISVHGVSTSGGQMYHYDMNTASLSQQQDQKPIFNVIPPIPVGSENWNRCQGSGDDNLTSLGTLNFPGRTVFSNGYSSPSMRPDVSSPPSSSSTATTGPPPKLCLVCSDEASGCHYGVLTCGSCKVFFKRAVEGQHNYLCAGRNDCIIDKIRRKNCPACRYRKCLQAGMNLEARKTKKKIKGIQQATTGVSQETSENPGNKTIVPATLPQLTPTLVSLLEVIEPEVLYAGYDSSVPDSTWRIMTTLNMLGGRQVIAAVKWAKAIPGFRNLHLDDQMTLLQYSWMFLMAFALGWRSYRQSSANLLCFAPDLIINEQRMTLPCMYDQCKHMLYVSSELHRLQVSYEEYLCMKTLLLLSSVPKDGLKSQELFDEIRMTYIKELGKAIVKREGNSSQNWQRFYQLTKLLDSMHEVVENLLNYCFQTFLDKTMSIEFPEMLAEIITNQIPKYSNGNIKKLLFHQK
Protocol: Human Glucocorticoid Receptor (GR) Assay The assay is based on a commercial kit from Panvera/Invitrogen (Part number P2893). The assay technology is fluorescence polarization. The kit utilises recombinant human GR (Panvera, Part number P2812), a Fluoromone™ labelled tracer (GS Red, Panvera, Part number P2894) and a Stabilizing Peptide 10× (Panvera, Part number P2815). The GR and Stabilizing Peptide reagents are stored at −70° C. while the GS Red is stored at −20° C. Also included in the kit are 1M DTT (Panvera, Part number P2325, stored at −20° C.) and GR Screening buffer 10× (Panvera, Part number P2814, stored at −70° C. initially but once thawed stored at room temperature). Avoid repeated freeze/thaws for all reagents. The GR Screening buffer 10× comprises 100 mM potassium phosphate, 200 mM sodium molybdate, 1 mM EDTA and 20% DMSO. Test compounds (1 μL) and controls (1 μL) in 100% DMSO were added to black polystyrene 384-well plates (Greiner low volume black flat-bottom, part number 784076). 0% control was 100% DMSO and 100% control was 10 μM Dexamethasone. Background solution (8 μL; assay buffer 10×, Stabilizing Peptide, DTT and ice cold MQ water) was added to the background wells. GS Red solution (7 μL; assay buffer 10×, Stabilizing Peptide, DTT, GS Red and ice cold water) was added to all wells except background wells. GR solution (7 μL; assay buffer 10×, Stabilizing Peptide, DTT, GR and ice cold water) was added to all wells. The plate was sealed and incubated in a dark at room temperature for 2 hours. The plate was read in an Analyst plate reader (LJL Biosystems/Molecular Devices Corporation) or other similar plate reader capable of recording fluorescence polarization (excitation wavelength 530 nm, emission wavelength 590 nm and a dichroic mirror at 561 nm).

| IC50 | Structure (SMILES) |
| --- | --- |
| 2.7 nM | Cc1ccc(C2O[C@@H]3C[C@H]4[C@@H]5CCC6=CC(=O)C=C[C@]6(C)[C@H]5[C@@H](O)C[C@]4(C)[C@]3(C(=O)SCC#N)O2)c(C)c1 (stereo partly drawn) [Example 36, S-(Cyanomethyl)(4aR,4bS,5S,6aS,6bS,9aR,10aS,10bS)-8-(2,4-dimethylphenyl)-5-hydroxy-4a,6a-dimethyl-2-oxo-2,4a,4b,5,6,6a,9a,10,10a,10,11,12-dodecahydro-6bH-naphtho[2′,1′:4,5]indeno[1,2-d][1,3]dioxole-6b-carbothioate] |
| 1.3 nM | C[C@]12C=CC(=O)C=C1[C@@H](F)C[C@H]1[C@@H]3C[C@H]4OC(c5ccc(Cl)cc5)O[C@@]4(C(=O)SCC#N)[C@@]3(C)C[C@H](O)[C@@]12F (stereo partly drawn) [Example 28, S-(Cyanomethyl)(4aS,4bR,5S,6aS,6bS,9aR,10aS,10bS,12S)-8-(4-chlorophenyl)-4b,12-difluoro-5-hydroxy-4a,6a-dimethyl-2-oxo-2,4a,4b,5,6,6a,9a,10,10a,10b,11,12-dodecahydro-6bH-naphtho[2′,1′,4,5]indeno[1,2-d][1,3]dioxole-6b-carbothioate] |
| 1.8 nM | Cc1ccc(C2O[C@@H]3C[C@H]4[C@@H]5C[C@H](F)C6=CC(=O)C=C[C@]6(C)[C@@]5(F)[C@@H](O)C[C@]4(C)[C@]3(C(=O)SCF)O2)cc1 (stereo partly drawn) [Example 17, S-(Fluoromethyl)(4aS,4bR,5S,6aS,6bS,9aR,10aS,10bS,12S)-4b,12-difluoro-5-hydroxy-4a,6a-dimethyl-8-(4-methylphenyl)-2-oxo-2,4a,4b,5,6,6a,9a,10,10a,10b,11,12-dodecahydro-6bH-naphtho[2′,1′:4,5]indeno[1,2-d][1,3]dioxole-6b-carbothioate] |
| 0.98 nM | C[C@]12C=CC(=O)C=C1[C@@H](F)C[C@H]1[C@@H]3C[C@H]4O[C@@H](c5ccccc5)O[C@@]4(C(=O)SCC#N)[C@@]3(C)C[C@H](O)[C@@]12F [Example 31, S-(Cyanomethyl)(4aS,4bR,5S,6aS,6bS,9aR,10aS,10bS,12S)-4b,12-difluoro-5-hydroxy-4a,6a-dimethyl-2-oxo-8-phenyl-2,4a,4b,5,6,6a,9a,10,10a,10b,11,12-dodecahydro-6bH-naphtho[2′,1′:4,5]indeno[1,2-d][1,3]dioxole-6b-carbothioate] |
| 1.1 nM | C[C@]12C=CC(=O)C=C1[C@@H](F)C[C@H]1[C@@H]3C[C@H]4OC(c5ccccc5F)O[C@@]4(C(=O)SCC#N)[C@@]3(C)C[C@H](O)[C@@]12F (stereo partly drawn) [Example 27, S-(Cyanomethyl)(4aS,4bR,5S,6aS,6bS,9aR,10aS,10bS,12S)-4b,12-difluoro-8-(2-fluorophenyl)-5-hydroxy-4a,6a-dimethyl-2-oxo-2,4a,4b,5,6,6a,9a,10,10a,10b,11,12-dodecahydro-6bH-naphtho[2′,1′:4,5]indeno[1,2-d][1,3]dioxole-6b-carbothioate] |
| 1 nM | C[C@]12C=CC(=O)C=C1[C@@H](F)C[C@H]1[C@@H]3C[C@H]4OC(c5cccs5)O[C@@]4(C(=O)SCF)[C@@]3(C)C[C@H](O)[C@@]12F (stereo partly drawn) [Example 15, S-(Fluoromethyl)(4aS,4bR,5S,6aS,6bS,9aR,10aS,10bS,12S)-4b,12-difluoro-5-hydroxy-4a,6a-dimethyl-2-oxo-8-(2-thienyl)-2,4a,4b,5,6,6a,9a,10,10a,10b,11,12-dodecahydro-6bH-naphtho[2′,1′:4,5]indeno[1,2-d][1,3]dioxole-6b-carbothioate] |
| 0.88 nM | COc1ccc([C@H]2O[C@@H]3C[C@H]4[C@@H]5CCC6=CC(=O)C=C[C@]6(C)[C@H]5[C@@H](O)C[C@]4(C)[C@]3(C(=O)SC)O2)c(F)c1 (single isomer, unassigned) [Example 38 (8S)] |
| 0.99 nM | C[C@]12C=CC(=O)C=C1[C@@H](F)C[C@H]1[C@@H]3C[C@H]4OC(c5cccc(F)c5)O[C@@]4(C(=O)SCC#N)[C@@]3(C)C[C@H](O)[C@@]12F (stereo partly drawn) [Example 23, S-(Cyanomethyl)(4aS,4bR,5S,6aS,6bS,9aR,10aS,10bS,12S)-4b,12-difluoro-8-(3-fluorophenyl)-5-hydroxy-4a,6a-dimethyl-2-oxo-2,4a,4b,5,6,6a,9a,10,10a,10b,11,12-dodecahydro-6bH-naphtho[2′,1′:4,5]indeno[1,2-d][1,3]dioxole-6b-carbothioate] |
| 0.92 nM | C[C@]12C=CC(=O)C=C1[C@@H](F)C[C@H]1[C@@H]3C[C@H]4OC(c5ccco5)O[C@@]4(C(=O)SCF)[C@@]3(C)C[C@H](O)[C@@]12F (stereo partly drawn) [Example 3] |
| 0.57 nM | C[C@]12C=CC(=O)C=C1[C@@H](F)C[C@H]1[C@@H]3C[C@H]4OC(c5cccs5)O[C@@]4(C(=O)SCC#N)[C@@]3(C)C[C@H](O)[C@@]12F (stereo partly drawn) [Example 9, S-(Cyanomethyl)(4aS,4bR,5S,6aS,6bS,9aR,10aS,10bS,12S)-4b,12-difluoro-5-hydroxy-4a,6a-dimethyl-2-oxo-8-(2-thienyl)-2,4a,4b,5,6,6a,9a,10,10a,10b,11,12-dodecahydro-6bH-naphtho[2′,1′:4,5]indeno[1,2-d][1,3]dioxole-6b-carbothioate] |
| 1.1 nM | C[C@]12C=CC(=O)C=C1[C@@H](F)C[C@H]1[C@@H]3C[C@H]4OC(c5ccc(F)cc5)O[C@@]4(C(=O)SCC#N)[C@@]3(C)C[C@H](O)[C@@]12F (stereo partly drawn) [Example 26, S-(Cyanomethyl)(4aS,4bR,5S,6aS,6bS,9aR,10aS,10bS,12S)-4b,12-difluoro-8-(4-fluorophenyl)-5-hydroxy-4a,6a-dimethyl-2-oxo-2,4a,4b,5,6,6a,9a,10,10a,10b,11,12-dodecahydro-6bH-naphtho[2′,1′:4,5]indeno[1,2-d][1,3]dioxole-6b-carbothioate] |
| 1.2 nM | C[C@]12C=CC(=O)C=C1[C@@H](F)C[C@H]1[C@@H]3C[C@H]4OC(c5ccc(F)cc5F)O[C@@]4(C(=O)SCF)[C@@]3(C)C[C@H](O)[C@@]12F (stereo partly drawn) [Example 6, S-(Fluoromethyl)(4aS,4bR,5S,6aS,6bS,9aR,10aS,10bS,12S)-8-(2,4-difluorophenyl)-4b,12-difluoro-5-hydroxy-4a,6a-dimethyl-2-oxo-2,4a,4b,5,6,6a,9a,10,10a,10b,11,12-dodecahydro-6bH-naphtho[2′,1′:4,5]indeno[1,2-d][1,3]dioxole-6b-carbothioate] |
| 3.7 nM | C[C@]12C=CC(=O)C=C1[C@@H](F)C[C@H]1[C@@H]3C[C@H]4OC(c5ccc(C(F)(F)F)cc5)O[C@@]4(C(=O)SCF)[C@@]3(C)C[C@H](O)[C@@]12F (stereo partly drawn) [Example 18, S-(Fluoromethyl)(4aS,4bR,5S,6aS,6bS,9aR,10aS,10bS,12S)-4b,12-difluoro-5-hydroxy-4a,6a-dimethyl-2-oxo-8-[4-(trifluoromethyl)phenyl]-2,4a,4b,5,6,6a,9a,10,10a,10b,11,12-dodecahydro-6bH-naphtho[2′,1′:4,5]indeno[1,2-d][1,3]dioxole-6b-carbothioate] |
| 0.59 nM | C[C@]12C=CC(=O)C=C1[C@@H](F)C[C@H]1[C@@H]3C[C@H]4OC(c5ccc(Cl)o5)O[C@@]4(C(=O)SCF)[C@@]3(C)C[C@H](O)[C@@]12F (stereo partly drawn) [Example 11, S-(Fluoromethyl)(4aS,4bR,5S,6aS,6bS,9aR,10aS,10bS,12S)-8-(5-chloro-2-furyl)-4b,12-difluoro-5-hydroxy-4a,6a-dimethyl-2-oxo-2,4a,4b,5,6,6a,9a,10,10a,10b,11,12-dodecahydro-6bH-naphtho[2′,1′:4,5]indeno[1,2-d][1,3]dioxole-6b-carbothioate] |
| 0.62 nM | CSC(=O)[C@@]12OC(c3ccccc3F)O[C@@H]1C[C@H]1[C@@H]3CCC4=CC(=O)C=C[C@]4(C)[C@H]3[C@@H](O)C[C@@]12C (stereo partly drawn) [Example 44, S-Methyl (4aR,4bS,5S,6aS,6bS,9aR,10aS,10bS)-8-(2-fluorophenyl)-5-hydroxy-4a,6a-dimethyl-2-oxo-2,4a,4b,5,6,6a,9a,10,10a,10b,11,12-dodecahydro-6bH-naphtho[2′,1′:4,5]indeno[1,2-d][1,3]dioxole-6b-carbothioate] |
